This passage reports IC50, half-life and microsomal CLint results from patent US20220073496A1, “NOVEL QUINOLINE DERIVATIVE INHIBITOR” (Nanjing Transthera Biosciences Co., Ltd., priority 2018, published 2022).

One data set deals with T1, Mer (h) (Homo sapiens, UniProt Q12866).
T1 construct: purchased
T1 sequence (Q12866 21-999): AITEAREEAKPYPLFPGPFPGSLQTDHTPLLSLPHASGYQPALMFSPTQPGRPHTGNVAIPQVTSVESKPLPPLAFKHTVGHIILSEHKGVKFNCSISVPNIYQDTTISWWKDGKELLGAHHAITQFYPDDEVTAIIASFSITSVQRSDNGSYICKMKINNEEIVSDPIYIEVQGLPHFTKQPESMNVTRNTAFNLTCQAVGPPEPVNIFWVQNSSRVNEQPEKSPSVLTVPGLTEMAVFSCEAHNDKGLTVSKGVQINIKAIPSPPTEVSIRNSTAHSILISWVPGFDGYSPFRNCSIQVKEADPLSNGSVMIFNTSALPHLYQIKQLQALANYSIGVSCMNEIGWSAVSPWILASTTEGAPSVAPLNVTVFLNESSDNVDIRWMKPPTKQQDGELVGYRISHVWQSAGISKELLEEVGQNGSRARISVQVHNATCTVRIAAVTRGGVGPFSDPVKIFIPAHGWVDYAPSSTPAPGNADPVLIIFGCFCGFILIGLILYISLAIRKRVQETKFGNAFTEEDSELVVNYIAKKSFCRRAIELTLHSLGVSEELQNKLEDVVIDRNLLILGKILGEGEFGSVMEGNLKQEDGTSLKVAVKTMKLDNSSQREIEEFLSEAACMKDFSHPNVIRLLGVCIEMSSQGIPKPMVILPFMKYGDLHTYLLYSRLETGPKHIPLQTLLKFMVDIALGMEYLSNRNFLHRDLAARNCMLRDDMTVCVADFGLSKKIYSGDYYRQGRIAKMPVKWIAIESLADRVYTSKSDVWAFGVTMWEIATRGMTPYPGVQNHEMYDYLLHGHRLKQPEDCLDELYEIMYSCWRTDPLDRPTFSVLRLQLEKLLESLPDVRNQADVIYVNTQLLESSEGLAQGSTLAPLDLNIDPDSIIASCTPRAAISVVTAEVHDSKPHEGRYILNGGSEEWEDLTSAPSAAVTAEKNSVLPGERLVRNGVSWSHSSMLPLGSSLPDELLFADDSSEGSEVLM
Kind of data set: Enzymatic activity test, Mer (h). The format is biochemical. The conditions noted are these: 10 μM [γ-33P]-ATP, 40 minutes, room temperature. As to the method:
Assay 3: Enzymatic Activity Test of the Compounds of the Present Invention
(§1) Test substances: the compounds of the present invention, wherein the structures and preparations thereof were as described above.
(1) Preparation of the Compound Stock Solution
The compound was dissolved in 100% DMSO to prepare a stock solution with a maximum concentration of 500 μM.
(2) Preparation of the Compound Working Solution
The compound stock solution was diluted to final concentrations of 500, 150, 50, 15, 5, 1.5, 0.5, 0.15 and 0.05 μM to become the compound working solutions (50×).
(3) Preparation of Different Enzyme Reaction Solutions
The Mer (h) enzyme was dissolved in 8 mM MOPS (pH 7.0), 0.2 mM EDTA, 30 mM NaCl, and 250 μM GGMEDIYFEFIVIGGKKK to prepare an enzyme solution having a final concentration of 3.1 nM. The enzymatic reaction was activated by using 10 mM magnesium acetate and 10 μM [γ-^33P]-ATP to form an Mg/ATP mixed solution.
In a 384-well plate, the compound working solution was added to final concentrations of 10000, 3000, 1000, 300, 100, 30, 10, 3, and 1 nM. Then different enzyme reaction solutions prepared according to the above conditions were added. The incubation was carried out for 40 minutes at room temperature. The test was terminated by the addition of a 0.5% phosphoric acid solution. 10 μL of the reaction solution was taken and dropped to the P30 filter paper. The filter paper was washed 4 times with 0.425% phosphoric acid solution and once with methanol, and then placed on a scintillation counter. The […] IC50 values were calculated using GraphPad 5.0 software.

A short description of data set [1]: Stability in liver microsome of mice. In kind it is in vitro ADME. The settings on record: liver microsomes; Mouse liver microsome 0.5 mg protein/mL, compound 1 μM, 37° C. As to the method:
Assay 1: Stability assessment of the compounds of the present invention in liver microsome of mice and dogs
as §1
The composition of the incubation system:
Preparation of Test Substances:
An appropriate amount of the compound was accurately weighed and dissolved in DMSO to prepare a 5.0 mM stock solution. The 5.0 mM stock solution was diluted to 1.0 mM with DMSO, and finally diluted with water to a 10 μM test substance working solution for use (the DMSO content in the reaction system was 0.1%).
(1) The liver microsome (20 mg protein/mL) was taken out from the −80° C. refrigerator, pre-incubated at 37° C. with a water-bathing constant temperature vibrator for 3 minutes, and melted for use.
(2) A mixed solution of the incubation system (excluding compounds and β-NADPH) according to the above “composition of the incubation system” for the assay was prepared, and pre-incubated at 37° C. with a water-bathing constant temperature vibrator for 2 minutes.
(3) Control group (excluding β-NADPH): 30 μL of water and 30 μL of compound working solution (10 μM) were added to 240 μL of the mixed solution of the incubation system of step (2), and vortexed for 30 seconds to mix well. The total reaction volume was 300 μL. A duplicate sample was prepared. The sample was incubated at 37° C. with a water-bathing constant temperature vibrator. The timekeeping began and the sampling time points were set at 0 minute and 60 minutes.
(4) Sample group: 70 μL of β-NADPH solution (10 mM) and 70 μL of compound working solution (10 μM) were added to 560 μL of the mixed solution of step (2). The total reaction volume was 700 μL. The resulting mixture was vortexed for 30 seconds to mix well. A duplicate sample was prepared. The sample was incubated at 37° C. with a water-bathing constant temperature vibrator. The timekeeping began and the sampling time points were set at 0 minute, 5 minutes, 10 minutes, 20 minutes, 30 minutes, and 60 minutes after timekeeping.
(5) After vortexing for 3 minutes, the sample was centrifuged at 4000 rpm for 10 minutes.
(6) 50 μL of the supernatant was taken and 150 μL of water was added. The resulting mixture was vortexed to mix well, and analyzed by LC/MS/MS.
The half-life (t1/2) and clearance rate (Cl) were calculated using the following first-order kinetic formula:
Vd=1/protein content in liver microsome
Note: k was the slope of the logarithm of the remaining amount of the compound versus time, and Vd was the apparent distribution volume.

As a reminder, the IC50 is the point on the concentration scale where inhibition reaches its midpoint. High values mean a need for much substance, low ones inhibition by little substance. For orientation: half-life means the time needed for the level to fall by half in the phase considered. Low values mean rapid decline, high ones slow decline. As a reminder, the microsomal CLint is a measure of how fast metabolising enzymes remove a compound, apart from limits set by blood flow. `COc1cc2nccc(Oc3ncc(NC(=O)c4nn(C(C)C)cc(-c5ccc(F)cc5)c4=O)cn3)c2cc1OC` [Compound 34, N-(2-((6,7-dimethoxyquinolin-4-yl)oxy)pyrimidine-5-yl)-5-para-fluorophenyl-1-isopropyl-4-oxo-1,4-dihydropyridazine-3-carboxamide] had an IC50 on Mer (h) of 2 nM. In data set [1], this compound showed a half-life at 1 μM of 4.62 h and a microsomal CLint at 1 μM of 5 µL/min/mg.
In the same order, the values of `COc1cc2nccc(Oc3cnc(NC(=O)c4cn(C(C)C)cc(-c5ccc(F)cc5)c4=O)nc3)c2cc1OC` [Compound 20, N-(5-((6,7-dimethoxyquinolin-4-y)oxy)pyrimidine-2-yl)-5-(4-fluorophenyl)-1-isopropyl-4-oxo-1,4-dihydropyridin-3-carboxamide] are 3 nM, 5.5 h and 4.2 µL/min/mg.
The compound `COc1cc2nccc(Oc3ccc(NC(=O)c4nn(C(C)C)cc(-c5ccc(F)cc5)c4=O)cn3)c2cc1OC` [Compound 29, N-(6-((6,7-dimethoxyquinolin-4-yl)oxy)pyridin-3-yl)-1-isopropyl-4-oxo-5-para-fluorophenyl-1,4-dihydropyridazine-3-carboxamide] returned a half-maximal inhibitory concentration (IC50) against Mer (h) of 1 nM. Also, in data set [1], the half-life at 1 μM was 3.22 h and the microsomal CLint at 1 μM amounted to 7.2 µL/min/mg.
For `COc1cc2nccc(Oc3ccc(NC(=O)c4cn(C(C)C)cc(-c5ccc(F)cc5)c4=O)nc3)c2cc1OC` [Compound 14, N-(5-((6,7-dimethoxyquinolin-4-yl)oxy)pyridin-2-yl)-5-(4-fluorophenyl)-1-isopropyl-4-oxo-1,4-dihydropyridin-3-carboxamide] the same measures were 2 nM, 3.12 h and 7.4 µL/min/mg.
For `COc1cc2nccc(Oc3cnc(NC(=O)c4cn(C5CC5)cc(-c5ccc(F)cc5)c4=O)nc3)c2cc1OC` [Compound 32, 1-cyclopropyl-N-(5-((6,7-dimethoxyquinolin-4-yl)oxy)pyrimidine-2-yl)-5-(4-fluorophenyl)-4-oxo-1,4-dihydropyridin-3-carboxamide] the same measures were 2 nM, 4.13 h and 5.6 µL/min/mg.
At Mer (h), `COc1cc2nccc(Oc3ncc(NC(=O)c4cn(C(C)C)nc(-c5ccc(F)cc5)c4=O)cn3)c2cc1OC` [Compound 40, N-(2-((6,7-dimethoxyquinolin-4-yl)oxy)pyrimidine-5-yl)-6-(4-fluorophenyl)-2-isopropyl-5-oxo-2,5-dihydropyridazine-4-carboxamide] returned an IC50 of 12 nM. Moreover, in data set [1], the half-life at 1 μM is 8.88 h and the microsomal CLint at 1 μM is 2.6 µL/min/mg.
